Measurements published in PMC8245078, “Development of novel benzofuran-isatin conjugates as potential antiproliferative agents with apoptosis inducing mechanism in Colon cancer” (Journal of Enzyme Inhibition and Medicinal Chemistry, 2021).
Where two headings read alike, the source gives them in different places.

Columns and labels:
[1] = test system: cleaved PARP in SW-620 cells; experiment: Western blot analysis of cleaved PARP; type: cell-based, human; details: SW-620, 5 μM and 10 μM, 24 h
Text: To further examine the possible mechanism of apoptosis, the effect of compounds 5a and 5d on certain apoptosis-related proteins was studied. Bcl2 protein as a critical component of the mitochondrial apoptotic pathway is reported to be overexpressed in numerous tumours causing survival of cancer cell[62]. In addition, it was reported that caspase activation during apoptosis leads to proteolytic cleavage of several cellular substrates participating in DNA reparation including [poly (ADP-ribose) polymerase][63]. Therefore, the impact of compounds 5a and 5d on the anti-apoptotic protein Bcl2 and the level of cleaved PARP was examined (Figure 7). […]
2.5. Western Blot Analysis
All cells were seeded in a 100 mm dish (1 × 10^6 cells per dish) in 5% CO2 at 37 °C in the appropriate culture medium. The cells with around 50% confluency were treated with compounds for 24h. At the experiment day, cells were washed with 1x PBS, harvested and lysed in RIPA lysis buffer, combined with protease inhibitors, (Sigma-Aldrich, St. Louis, MO, USA) as described previously (39)). The total protein concentration was evaluated by the colorimetric Bradford protein assay (BIO-RAD inc, CA, USA) at 595 nm absorbance. Lysates were loaded in […]
equal concentration and separated by sodium dodecyl sulfate-polyacrylamide gel electrophoresis (SDS-PAGE) and then transferred to a nitrocellulose membrane by semi-dry. […]

[2] = test system: HT-29 colorectal cancer cell line; experiment: MTT cell viability assay; type: cell-based, human; details: for inhibition of HT-29 cancer cells viability: 10 µM, 24 h, MTT
Method: In the present investigation a new set of benzofuran–isatin hybrids (5a–e and 7a–i) was synthesised to be evaluated for their potential anticancer activity towards two human colorectal cancer cell lines, SW-620 and HT-29. […] Both, SW-620 and HT-29 cells were treated with 10 µM of each compound for 24 h and the percent cell viability was calculated using MTT assay.
For this reason, compounds 5a and 5d were pursued for further studies. Starting with determination of IC50s and cytotoxic selectivity studies. Serial concentrations of compounds 5a and 5d were used to examine their impact on cell viability using MTT protocol. Results of concentration vs percent viability were charted, and the IC50 was calculated for SW-620 and HT-29 cell lines using Graph Pad prism 8 (Figure 4). […]
[(Ti-Tz)/Tz] x 100 for concentrations for which Ti<Tz […]
SW620 and HT29 colorectal cancer cell lines and HFF-1 fibroblast (ATCC, Rockville, USA) were used. HT29 cells were cultured and maintained in Dulbecco’s Modified Eagles Medium (DMEM) (GIBCO, by Thermo Fischer Scientific, NY, USA) supplemented with 10% fetal bovine serum (FBS), 100 units/mL penicillin, and 100 μg streptomycin. SW620 and HFF-1 cells were cultured in Roswell Park Memorial Institute medium (RPMI-1640) (GIBCO, by Thermo scientific, NY, USA) supplemented with 10% FBS and 1% penicillin and streptomycin (Napolitano et al., 2015). All cultures were incubated at 37 °C and humidified atmosphere of 5% […]
2.3. Cell Viability Assay
The cytotoxicity effect of compounds on the colorectal cancer cell lines, SW620 and HT29 in addition to the normal human fibroblasts was measured by MTT (3-(4, 5-dimethylthiazol-2-yl)-2,5-diphenyltetrazolium bromide) (Sigma-Aldrich, St. Louis, MO, USA) as previously described. Briefly, cells were seeded in 96 well culture plates at 5000/well for HT29 and 10,000/well for SW620 for 24 h. Cells were then incubated with different compounds from WAG1 series (1-15) 24h at 37 °C and humidified 5% CO2 incubator. Freshly prepared 10 μl of 3-(4,5-dimethylthiazol-2-yl)-2,5-diphenyltetrazolium bromide (MTT 5 mM) solution were added to the cells and further incubated for 2 h. Thereafter, 100 μl of dimethyl sulfoxide (DMSO) were added in each well and the crystals were dissolved through careful pipetting. […]
VA, USA). The experiments were performed in triplicate for each condition. […]
The total protein concentration was evaluated by the colorimetric
Bradford protein assay (BIO-RAD inc, CA, USA) at 595 nm absorbance. Lysates were loaded in […]

RPMI-8226 = experiment: NCI single dose screening (10 µM); type: cell-based; details: Homo sapiens
[3] = Homo sapiens, HT-29, HT-29, MTT
[4] = RPMI-8226, Leukaemia, single dose 10^−5 M, read-out: GI% (cell growth inhibition percentage)

Row | Compound | level of cleaved PARP (Western blot, in words) [1] | inhibition of HT-29 cancer cells viability [2] [%] | IC50 ([2]; HT-29, MTT) [µM] | IC50 [2, 3] [µM] | inhibition at 10 µM (RPMI-8226; [4]) [%] | other results
1 | Cc1c(C(=O)N/N=C2\C(=O)Nc3ccccc32)oc2ccccc12 [Compound 5a] | significant increase | > 50 | 8.7 | 9.4 | – | –
2 | Cc1c(C(=O)N/N=C2\C(=O)Nc3ccc(F)cc32)oc2ccccc12 [Compound 5b] | – | – | – | – | < 10 | –
3 | Cc1c(C(=O)N/N=C2\C(=O)Nc3ccc(Br)cc32)oc2ccccc12 [Compound 5c] | – | – | – | – | < 10 | –
4 | COc1ccc2c(c1)/C(=N/NC(=O)c1oc3ccccc3c1C)C(=O)N2 [Compound 5d] | significant increase | > 50 | 6.5 | 9.8 | – | –
5 | CCCN1C(=O)/C(=N\NC(=O)c2oc3ccccc3c2C)c2ccccc21 [Compound 7b] | – | > 50 | – | – | – | –
6 | Cc1c(C(=O)N/N=C2\C(=O)N(Cc3ccccc3)c3ccccc32)oc2ccccc12 [Compound 7d] | – | – | – | – | – | inhibition at 10 µM (RPMI-8226; RPMI-8226, read-out: GI% (cell growth inhibition percentage)): < 10%
